Results reported in publication PMC10253357, “Acceptors and Effectors Alter Substrate Inhibition Kinetics of a Plant Glucosyltransferase NbUGT72AY1 and Its Mutants” (International Journal of Molecular Sciences, 2023).
One block for each molecule: values may come before it.

Key:
[1] = target: T1, NbUGT72AY1 (Nicotiana benthamiana, UniProt A0A8K1ZRH3); test: UDP-Glo glucosyltransferase assay, UDP release; type: biochemical; conditions: UDP-glucose donor, Tris pH 7.5, 40 °C
T1 construct: pGEX-4T-1 vector (GST fusion expected), expressed in E. coli BL21(DE3) pLysS
T1 sequence (A0A8K1ZRH3 1-477): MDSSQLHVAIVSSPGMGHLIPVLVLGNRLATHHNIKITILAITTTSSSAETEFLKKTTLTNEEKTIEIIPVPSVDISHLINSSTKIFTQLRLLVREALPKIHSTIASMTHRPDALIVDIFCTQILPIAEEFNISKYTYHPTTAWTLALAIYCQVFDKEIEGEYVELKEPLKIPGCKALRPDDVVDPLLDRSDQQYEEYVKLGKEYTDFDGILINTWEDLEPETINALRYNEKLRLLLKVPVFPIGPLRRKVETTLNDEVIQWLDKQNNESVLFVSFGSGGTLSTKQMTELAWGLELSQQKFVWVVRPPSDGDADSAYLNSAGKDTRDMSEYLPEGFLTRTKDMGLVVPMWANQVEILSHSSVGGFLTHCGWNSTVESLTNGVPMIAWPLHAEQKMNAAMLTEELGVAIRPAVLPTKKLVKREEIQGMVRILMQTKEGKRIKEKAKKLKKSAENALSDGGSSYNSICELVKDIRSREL

[2] = target: T1, NbUGT72AY1; test: UDP-Glo assay with vanillin, effector added; type: biochemical; conditions: vanillin acceptor, UDP-glucose donor, Tris pH 7.5, 40 °C
[3] = target: T1, NbUGT72AY1; test: UDP-Glo glucosyltransferase assay, UDP release; type: biochemical; conditions: UDP-glucose donor; Tris pH 7.5, 40 °C; fit with substrate inhibition and Hill coefficients
[4] = target: T2, chimera A; test: UDP-Glo glucosyltransferase assay, UDP release; type: biochemical, Nicotiana benthamiana; conditions: substrate inhibition constant, uncompetitive model with Hill coefficients; UDP-glucose donor; Tris pH 7.5, 40 °C
T2 construct: gene UGT72AY1; NbUGT72AY1 (MT945401) with a segment of StUGT72AY2 from Solanum tuberosum; pGEX-4T-1, E. coli

[5] = substrate: Oc1ccc(O)cc1; test: UDP-Glo glucosyltransferase assay, UDP release; type: biochemical, Nicotiana benthamiana; conditions: UDP-glucose donor, Tris pH 7.5, 40 °C, Michaelis-Menten, no substrate inhibition
[6] = substrate: O=c1c(O)c(-c2ccc(O)cc2)oc2cc(O)cc(O)c12; test: UDP-Glo glucosyltransferase assay, UDP release; type: biochemical, Nicotiana benthamiana; conditions: UDP-glucose donor, Tris pH 7.5, 40 °C, two products (3-O- and 7-O-glucoside)
[7] = substrate: COc1ccccc1O; test: UDP-Glo glucosyltransferase assay, UDP release; type: biochemical, Nicotiana benthamiana; conditions: UDP-glucose donor, Tris pH 7.5, 40 °C, fit with substrate inhibition and Hill coefficients
[8] = substrate inhibition constant, uncompetitive model with Hill coefficients
[9] = substrate inhibition constant, complete (Vi = 0), uncompetitive model with Hill coefficients

Ki [1, 8]: 62 ± 17 µM
Molecule: C=CCc1ccc(O)c(OC)c1 [eugenol]

Ki ([1]; substrate inhibition constant (partial uncompetitive model with Hill coefficients)): 16 ± 1 µM
Molecule: COc1cc2ccc(=O)oc2cc1O [scopoletin]

Ki ([1]; substrate inhibition constant, partial uncompetitive model with Hill coefficients (n = 1, x = 2), no effector): 117 ± 24 µM
Molecule: COc1cc(C=O)ccc1O [vanillin]

Ki [1, 8]: 345 ± 58 µM
Molecule: CCc1ccc(O)c(OC)c1 [ethylguaiacol]

Ki [1, 9]: 1022 ± 69 µM
Molecule: COc1ccccc1O [guaiacol]

Ki [1, 9]: 1398 ± 283 µM | Ki [4]: 1437 ± 138 µM
Molecule: COc1cc(/C=C/C=O)cc(OC)c1O [sinapaldehyde]

Second part, the molecule before the results:

Molecule: CC1=CCCC(C)(C)C1/C=C/C(C)O (stereo not drawn) [α-ionol]
UDP-Glo assay with vanillin, effector added ([2]; effector at 100 and 200 µM): addition of α- and β-ionol to the reaction resulted in a concentration-dependent increase in Ki

Molecule: CCCCCCCCCCCCCCCCCC(=O)O [stearic acid]
UDP-Glo assay with vanillin, effector added ([2]; effector at 20 and 100 µM): Saturated stearic acid promoted the glycosylation activity of NbUGT72AY1 with vanillin

Molecule: CCCCCCCC/C=C\CCCCCCCC(=O)O [oleic acid]
UDP-Glo assay with vanillin, effector added ([2]; effector at 20 and 100 µM): increased catalytic activity of NbUGT72AY1, noted after addition of stearic and oleic acid

Molecule: Cc1ccccc1O [o-cresol]
Km [3]: 17 ± 9 µM | Ki [1, 9]: 1368 ± 165 µM

Molecule: CC1=C(/C=C/C(C)O)C(C)(C)CCC1 (stereo not drawn) [β-ionol]
UDP-Glo assay with vanillin, effector added ([2]; effector at 100 and 200 µM): addition of α- and β-ionol to the reaction resulted in a concentration-dependent increase in Ki

B1: NbUGT72AY1 (Nicotiana benthamiana) (protein)
chain: MDSSQLHVAIVSSPGMGHLIPVLVLGNRLATHHNIKITILAITTTSSSAETEFLKKTTLTNEEKTIEIIPVPSVDISHLINSSTKIFTQLRLLVREALPKIHSTIASMTHRPDALIVDIFCTQILPIAEEFNISKYTYHPTTAWTLALAIYCQVFDKEIEGEYVELKEPLKIPGCKALRPDDVVDPLLDRSDQQYEEYVKLGKEYTDFDGILINTWEDLEPETINALRYNEKLRLLLKVPVFPIGPLRRKVETTLNDEVIQWLDKQNNESVLFVSFGSGGTLSTKQMTELAWGLELSQQKFVWVVRPPSDGDADSAYLNSAGKDTRDMSEYLPEGFLTRTKDMGLVVPMWANQVEILSHSSVGGFLTHCGWNSTVESLTNGVPMIAWPLHAEQKMNAAMLTEELGVAIRPAVLPTKKLVKREEIQGMVRILMQTKEGKRIKEKAKKLKKSAENALSDGGSSYNSICELVKDIRSREL
notes: pGEX-4T-1 vector (GST fusion expected), expressed in E. coli BL21(DE3) pLysS
Km [5]: 331 ± 25 µM | Km [6]: 15 ± 3 µM | Km [7]: 179 ± 44 µM
